{"source": "patent US9464069B2", "about": "“1,2-disubstituted cyclobutyl compounds” (LABORATORIOS DEL DR. ESTEVE S.A., priority 2013, dated 2016)", "molecular_target": "T1, human sigma 1 receptor (Homo sapiens, UniProt Q99720)", "T1 construct": "expressed in transfected cells; host or cells: HEK-293", "T1 sequence (Q99720 whole entry)": "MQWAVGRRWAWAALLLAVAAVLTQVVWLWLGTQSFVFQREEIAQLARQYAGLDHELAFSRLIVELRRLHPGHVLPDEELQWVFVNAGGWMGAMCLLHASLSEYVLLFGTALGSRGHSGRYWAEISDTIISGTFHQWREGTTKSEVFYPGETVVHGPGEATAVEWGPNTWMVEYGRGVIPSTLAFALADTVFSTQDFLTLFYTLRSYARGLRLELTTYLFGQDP", "assay": "Human Sigma 1 Receptor Radioligand Assay", "type": "binding", "conditions": "[3H](+)-pentazocine radioligand 5 nM; transfected HEK-293 membranes; 37° C., 120 minutes", "experimental": "Human Sigma 1 Receptor Radioligand Assay\nTo investigate binding properties of sigma 1 receptor ligands to human sigma 1 receptor, transfected HEK-293 membranes and [^3H](+)-pentazocine (Perkin Elmer, NET-1056), as the radioligand, were used. The assay was carried out with 7 μg of membrane suspension, 5 nM of [^3H](+)-pentazocine in either absence or presence of either buffer or 10 μM Haloperidol for total and non-specific binding, respectively. Binding buffer contained Tris-HCl 50 mM at pH 8. Plates were incubated at 37° C. for 120 minutes. After the incubation period, the reaction mix was then transferred to MultiScreen HTS, FC plates (Millipore), filtered and plates were washed 3 times with ice-cold 10 mM Tris-HCL (pH 7.4). Filters were dried and counted at approximately 40% efficiency in a MicroBeta scintillation counter (Perkin-Elmer) using EcoScint liquid scintillation cocktail.", "note": "Counter-ions that a name gives are not always drawn.", "data": [{"smiles": "c1ccc(OC[C@@H]2CC[C@@H]2CN2CCCC2)cc1", "note": "[Example 1, 1-(((1S,2R)-2-(Phenoxymethyl)cyclobutyl)methyl)pyrrolidine]", "values": [{"measurement": "Ki", "value": 7.1, "unit": "nM"}]}, {"smiles": "CC1CCN(C[C@H]2CC[C@H]2COc2ccccc2)CC1", "note": "[Example 3, 4-Methyl-1-(((1S,2R)-2-(phenoxymethyl)cyclobutyl)methyl)piperidine]", "values": [{"measurement": "Ki", "value": 2.8, "unit": "nM"}]}, {"smiles": "Clc1ccc(-n2ccc(OC[C@@H]3CC[C@@H]3CN3CCCC3)n2)cc1Cl", "note": "[Example 13, 1-(3,4-Dichlorophenyl)-3-(((1R,2S)-2-(pyrrolidin-1-ylmethyl)cyclobutyl)methoxy)-1H-pyrazole]", "values": [{"measurement": "Ki", "value": 16.5, "unit": "nM"}]}, {"smiles": "Cc1cc(OC[C@@H]2CC[C@@H]2CN2CCCC2)nn1-c1ccc(Cl)c(Cl)c1", "note": "[Example 15, 1-(3,4-Dichlorophenyl)-5-methyl-3-(((1R,2S)-2-(pyrrolidin-1-ylmethyl)cyclobutyl)methoxy)-1H-pyrazole]", "values": [{"measurement": "Ki", "value": 50.3, "unit": "nM"}]}, {"smiles": "Cc1cc(OC[C@@H]2CC[C@@H]2CN2CCOCC2)nn1-c1ccc(Cl)c(Cl)c1", "note": "[Example 16, 4-(((1S,2R)-2-(((1-(3,4-Dichlorophenyl)-5-methyl-1H-pyrazol-3-yl)oxy)methyl)cyclobutyl)methyl)morpholine]", "values": [{"measurement": "Ki", "value": 178, "unit": "nM"}]}, {"smiles": "c1ccc(OC[C@@H]2CC[C@@H]2CN2CCOCC2)cc1", "note": "[Example 17, 4-(((1S,2R)-2-(Phenoxymethyl)cyclobutyl)methyl)morpholine hydrochloride]", "values": [{"measurement": "Ki", "value": 33.9, "unit": "nM"}]}, {"smiles": "Clc1ccc(OC[C@@H]2CC[C@@H]2CN2CCCC2)cc1Cl", "note": "[Example 18, 1-(((1S,2R)-2-((3,4-Dichlorophenoxy)methyl)cyclobutyl)methyl)pyrrolidine hydrochloride]", "values": [{"measurement": "Ki", "value": 2.3, "unit": "nM"}]}, {"smiles": "Clc1ccc(OC[C@@H]2CC[C@@H]2CN2CCOCC2)cc1Cl", "note": "[Example 19, 4-(((1S,2R)-2-((3,4-Dichlorophenoxy)methyl)cyclobutyl)methyl)morpholine hydrochloride]", "values": [{"measurement": "Ki", "value": 3.7, "unit": "nM"}]}, {"smiles": "CC1CCN(C[C@H]2CC[C@H]2COc2ccc(Cl)c(Cl)c2)CC1", "note": "[Example 20, 1-(((1S,2R)-2-((3,4-Dichlorophenoxy)methyl)cyclobutyl)methyl)-4-methylpiperidine hydrochloride]", "values": [{"measurement": "Ki", "value": 4.8, "unit": "nM"}]}, {"smiles": "Cn1nc(OC[C@@H]2CC[C@@H]2CN2CCCC2)cc1C(F)(F)F", "note": "[Example 21, 1-Methyl-3-(((1R,2S)-2-(pyrrolidin-1-ylmethyl)cyclobutyl)methoxy)-5-(trifluoromethyl)-1H-pyrazole hydrochloride]", "values": [{"measurement": "Ki", "value": 19.1, "unit": "nM"}]}, {"smiles": "Cn1nc(OC[C@@H]2CC[C@@H]2CN2CCOCC2)cc1C(F)(F)F", "note": "[Example 22, 4-(((1S,2R)-2-(((1-Methyl-5-(trifluoromethyl)-1H-pyrazol-3-yl)oxy)methyl)cyclobutyl)methyl)morpholine hydrochloride]", "values": [{"measurement": "Ki", "value": 5.6, "unit": "nM"}]}, {"smiles": "Cn1nc(C(F)(F)F)cc1OC[C@@H]1CC[C@@H]1CN1CCCC1", "note": "[Example 23, 1-Methyl-5-(((1R,2S)-2-(pyrrolidin-1-ylmethyl)cyclobutyl)methoxy)-3-(trifluoromethyl)-1H-pyrazole hydrochloride]", "values": [{"measurement": "Ki", "value": 30.1, "unit": "nM"}]}, {"smiles": "Clc1ccc(-n2ccc(OC[C@@H]3CC[C@@H]3CN3CCCC3)n2)cc1Cl", "note": "[Example 25, 1-(3,4-Dichlorophenyl)-3-(((1R,2S)-2-(pyrrolidin-1-ylmethyl)cyclobutyl)methoxy)-1H-pyrazole hydrochloride]", "values": [{"measurement": "Ki", "value": 20.4, "unit": "nM"}]}, {"smiles": "Clc1ccc(-n2ccc(OC[C@@H]3CC[C@@H]3CN3CCOCC3)n2)cc1Cl", "note": "[Example 26, 4-(((1S,2R)-2-(((1-(3,4-Dichlorophenyl)-1H-pyrazol-3-yl)oxy)methyl)cyclobutyl)methyl)morpholine hydrochloride]", "values": [{"measurement": "Ki", "value": 13.4, "unit": "nM"}]}, {"smiles": "Cc1cc(OC[C@@H]2CC[C@@H]2CN2CCCC2)nn1-c1ccc(Cl)c(Cl)c1", "note": "[Example 27, 1-(3,4-Dichlorophenyl)-5-methyl-3-(((1R,2S)-2-(pyrrolidin-1-ylmethyl)cyclobutyl)methoxy)-1H-pyrazole hydrochloride]", "values": [{"measurement": "Ki", "value": 72.5, "unit": "nM"}]}, {"smiles": "Clc1ccc(-n2ccc(OC[C@@H]3CC[C@H]3CN3CCCC3)n2)cc1Cl", "note": "[Example 28]", "values": [{"measurement": "Ki", "value": 104, "unit": "nM"}]}, {"smiles": "Cc1cc(OC[C@@H]2CC[C@H]2CN2CCCC2)nn1-c1ccc(Cl)c(Cl)c1", "note": "[Example 29, 1-(3,4-Dichlorophenyl)-5-methyl-3-(((1R,2R)-2-(pyrrolidin-1-ylmethyl)cyclobutyl)methoxy)-1H-pyrazole]", "values": [{"measurement": "Ki", "value": 113, "unit": "nM"}]}, {"smiles": "Cc1cc(OC[C@@H]2CC[C@H]2CN2CCOCC2)nn1-c1ccc(Cl)c(Cl)c1", "note": "[Example 30, 4-(((1R,2R)-2-(((1-(3,4-Dichlorophenyl)-5-methyl-1H-pyrazol-3-yl)oxy)methyl)cyclobutyl)methyl)morpholine]", "values": [{"measurement": "Ki", "value": 578, "unit": "nM"}]}, {"smiles": "Cn1nc(OC[C@@H]2CC[C@H]2CN2CCCC2)cc1C(F)(F)F", "note": "[Example 32, 1-Methyl-3-(((1R,2R)-2-(pyrrolidin-1-ylmethyl)cyclobutyl)methoxy)-5-(trifluoromethyl)-1H-pyrazole hydrochloride]", "values": [{"measurement": "Ki", "value": 17.2, "unit": "nM"}]}, {"smiles": "Cn1nc(OC[C@H]2CC[C@H]2CN2CCCC2)cc1C(F)(F)F", "note": "[Example 34, 1-Methyl-3-(((1S,2R)-2-(pyrrolidin-1-ylmethyl)cyclobutyl)methoxy)-5-(trifluoromethyl)-1H-pyrazole hydrochloride]", "values": [{"measurement": "Ki", "value": 28.3, "unit": "nM"}]}, {"smiles": "Cc1cc(OC[C@H]2CC[C@@H]2CN2CCOCC2)nn1-c1ccc(Cl)c(Cl)c1", "note": "[Example 36, 4-(((1S,2S)-2-(((1-(3,4-Dichlorophenyl)-5-methyl-1H-pyrazol-3-yl)oxy)methyl)cyclobutyl)methyl)morpholine]", "values": [{"measurement": "Ki", "value": 465, "unit": "nM"}]}, {"smiles": "Cn1nc(OC[C@H]2CC[C@@H]2CN2CCCC2)cc1C(F)(F)F", "note": "[Example 38, 1-Methyl-3-(((1S,2S)-2-(pyrrolidin-1-ylmethyl)cyclobutyl)methoxy)-5-(trifluoromethyl)-1H-pyrazole hydrochloride]", "values": [{"measurement": "Ki", "value": 75.8, "unit": "nM"}]}, {"smiles": "CCN(CC)C[C@H]1CC[C@@H]1COc1ccccc1", "note": "[Example 39, N,N-Diethyl-N-(((1S,2S)-2-(phenoxymethyl)cyclobutyl)methyl)ethanamine hydrochloride]", "values": [{"measurement": "Ki", "value": 39.9, "unit": "nM"}]}]}
